Data on 16 substances can be found in US10011649B2 (priority 2013, dated 2018).

In assay [1] the test system is UV inactivated Influenza A PR/8/1934 H1N1. The assay is classed as binding.
The subject of assay [2] is UV inactivated Influenza A PR8/1934. The assay is classed as binding.
Assay [3] deals with A/PR/8/34 H1N1 infected Madin-Darby Canine Kidney (MDCK) cells. The experiment in a line: Cytopathic effect assay (XTT), virus induced cell death. The settings on record: read-out: IC50, inhibition of virus induced cell death. Type of assay: cell-based. The text has this:
The illustrated examples support the finding that synbodies inhibit the cytopathic effect of influenza on MDCK cells. Influenza binding peptides were conjugated to a bivalent scaffold (Sc1, as best shown in FIG. 2A) and screened for viral inhibition in an in vitro inhibition assay with A/PR/8/34 H1N1 infected Madin-Darby Canine Kidney (MDCK) cells.
On the technique in general: Cytopathic effects are the visible damage that an infection or toxin causes in cultured cells.

Assay [4] has as its target T1, NP in A/PR/8/34 H1N1 viral lysate (Influenza A virus, UniProt P03466).
T1 construct: from tissue; host or cells: A/PR/8/34 H1N1 viral lysate
Type of assay: binding.

The subject of assay [5] is hemagglutination of A/PR/8/34.
Assay [6] concerns NP in A/Sydney/5/1997 H3N2 viral lysate. The assay is classed as binding.

Numbered stars: 1 amine (or outer) side, 2 acyl side, 3 side chain; on linkers, the order of the positions; unused ones are H or OH. Bridge positions count the residues as written; N and C are the ends. Square brackets hold non-standard residues; d marks the D form. Ends that are not written are not given here. I, II: the chains in the order shown. * marks the point of attachment. ξ: configuration not given here. Succinimide(1-C2H4CO,3-yl) = O=C1CC([*:1])C(=O)N1CCC(=O)[*:2]; X4 = O=C(O)CC[C@H](NC(=O)CCN1C(=O)CC([*:1])C1=O)C(=O)[*:2]; X2 = O=C(O)CCC(NC(=O)CCN1C(=O)CC([*:2])C1=O)C(=O)[*:1]; Biotin = O=C1N[C@H]2[C@H](CS[C@H]2CCCCC(=O)*)N1; X3 = O=C1CC([*:2])C(=O)N1CCC(=O)[*:1]; X1 = O=C1NC2CSC(CCCCC(=O)*)C2N1; scaffold‑1 = not defined here; Pra = C#CC[C@H](N)C(=O)O; ξE = NC(CCC(=O)O)C(=O)O; AEEA = NCCOCCOCC(=O)O; ξK = NCCCCC(N)C(=O)O; ξS = NC(CO)C(=O)O

T1 sequence (P03466 whole entry): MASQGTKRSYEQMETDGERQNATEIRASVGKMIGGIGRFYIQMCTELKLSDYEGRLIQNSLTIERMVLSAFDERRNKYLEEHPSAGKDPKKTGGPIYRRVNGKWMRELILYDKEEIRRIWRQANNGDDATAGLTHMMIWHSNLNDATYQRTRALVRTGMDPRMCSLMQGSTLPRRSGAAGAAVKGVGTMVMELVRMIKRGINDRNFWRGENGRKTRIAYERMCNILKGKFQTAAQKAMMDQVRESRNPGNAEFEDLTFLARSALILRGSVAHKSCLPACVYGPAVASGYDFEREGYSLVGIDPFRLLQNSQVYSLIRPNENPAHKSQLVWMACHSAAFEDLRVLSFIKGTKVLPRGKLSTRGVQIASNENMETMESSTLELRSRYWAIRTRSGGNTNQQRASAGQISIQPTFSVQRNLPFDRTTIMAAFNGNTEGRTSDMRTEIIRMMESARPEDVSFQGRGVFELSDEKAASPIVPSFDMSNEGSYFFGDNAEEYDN

“CSGrMYpYrPFQGNHIYrKK (CSG[dR]MYPY[dR]PFQGNHIY[dR]KK; not fully specified (residue 7); printed as CSGrMYpYrPFQGNHIYrKK) [opt10]”: the “fold improvement of optimized peptide over identified lead peptide” value in assay [1] was “approximately 1000 fold”. Usually IC50 stands for the point on the concentration scale where inhibition reaches its midpoint. As for “I: CSGDMYEYNPFQGNHIYNKK-NH2 / II: CSGDMYEYNPFQGNHIYNKK-NH2 / III: EKGSKSGK(Biotin)[Pra]-NH2 (linker I:1-III:2 via X4; linker II:1-III:N via Succinimide(1-C2H4CO,3-yl); C-terminus assumed) [P5-P5-Sc1]”, in assay [2], the “Fold Change versus WT Synbody” value is reported as 1 fold. Also, the IC50 in assay [3] is around 2.5 µM.

Take “I: [ξE][ξK]G[ξS]G[ξS]G[AEEA][ξK](X1)IDKMPFETHRLGPGRFDGSG-NH2 / II: CSGDMYEYNPFQGNHIYNKK-NH2 / III: CSGDMYEYNPFQGNHIYNKK-NH2 (linker I:2-II:1 via X2; linker I:N-III:1 via X3) [P5-P5-Sc2]”: the IC50 with A/Sydney/5/1997 H3N2 and in the assay on A/CA/7/2009 H1N1 was 2.5 µM each time. Further, the “pull-down of NP from lysate” value in assay [4] and in assay [6] was “pulled-down NP from both lysates” throughout. For the same substance, the inhibition of hemagglutination entry in assay [5] is recorded as “did not inhibit hemagglutination”. Turning to “opt1-opt1: homo-bivalent synbody SEQ ID NO: 2-2 on scaffold-1 (chain 1 CSGDMYRYNPFQGNHIYNKK; chain 2 CSGDMYRYNPFQGNHIYNKK; linker (positions not given here) via scaffold‑1; reading uncertain; also: homo-bivalent on scaffold-1, attachment not given here)”, the “Fold Change versus WT Synbody” value in assay [2] is listed as 6 fold.

Take “opt2-opt2: homo-bivalent synbody SEQ ID NO: 3-3 on scaffold-1 (chain 1 CSGRMYEYNPFQGNHIYNKK; chain 2 CSGRMYEYNPFQGNHIYNKK; linker (positions not given here) via scaffold‑1; reading uncertain; also: homo-bivalent on scaffold-1, attachment not given here)”: the “Fold Change versus WT Synbody” value in assay [2] worked out at 3 fold.

As for “opt3-opt3: homo-bivalent synbody SEQ ID NO: 4-4 on scaffold-1 (chain 1 CSGDMYPYNPFQGNHIYNKK; chain 2 CSGDMYPYNPFQGNHIYNKK; linker (positions not given here) via scaffold‑1; reading uncertain; also: homo-bivalent on scaffold-1, attachment not given here)”, the “Fold Change versus WT Synbody” value in assay [2] is reported as “n.b”. The same measure, in the same setting: with “opt4-opt4: homo-bivalent synbody SEQ ID NO: 5-5 on scaffold-1 (chain 1 CSGRMYPYNPFQGNHIYNKK; chain 2 CSGRMYPYNPFQGNHIYNKK; linker (positions not given here) via scaffold‑1; reading uncertain; also: homo-bivalent on scaffold-1, attachment not given here)” the figure was 10 fold; with “opt5-opt5: homo-bivalent synbody SEQ ID NO: 6-6 on scaffold-1 (chain 1 CSGRMYRYNPFQGNHIYNKK; chain 2 CSGRMYRYNPFQGNHIYNKK; linker (positions not given here) via scaffold‑1; reading uncertain; also: homo-bivalent on scaffold-1, attachment not given here)”, “n.b”; with “opt6-opt6: homo-bivalent synbody SEQ ID NO: 7-7 on scaffold-1 (chain 1 CSGDMYEYNPFQGNHIYRKK; chain 2 CSGDMYEYNPFQGNHIYRKK; linker (positions not given here) via scaffold‑1; reading uncertain; also: homo-bivalent on scaffold-1, attachment not given here)”, 4 fold. On the same count and under the same terms, with “opt7-opt7: homo-bivalent synbody SEQ ID NO: 8-8 on scaffold-1 (chain 1 CSGRMYPYNPFQGNHIYRKK; chain 2 CSGRMYPYNPFQGNHIYRKK; linker (positions not given here) via scaffold‑1; reading uncertain; also: homo-bivalent on scaffold-1, attachment not given here)” the figure was 45 fold. Still for that read-out and setting: with “opt8-opt8: homo-bivalent synbody SEQ ID NO: 9-9 on scaffold-1 (chain 1 CSGTMYEYNPFQGNHIYNKK; chain 2 CSGTMYEYNPFQGNHIYNKK; linker (positions not given here) via scaffold‑1; reading uncertain; also: homo-bivalent on scaffold-1, attachment not given here)” the figure was 1 fold; with “opt9-opt9: homo-bivalent synbody SEQ ID NO: 10-10 on scaffold-1 (chain 1 CSGRMYPYRPFQGNHIYRKK; chain 2 CSGRMYPYRPFQGNHIYRKK; linker (positions not given here) via scaffold‑1; reading uncertain; also: homo-bivalent on scaffold-1, attachment not given here)”, 1 fold. Take “opt11-opt11: homo-bivalent synbody SEQ ID NO: 12-12 on scaffold-1 (chain 1 CSGTMYPYRPFQGNHIYRKK; chain 2 CSGTMYPYRPFQGNHIYRKK; linker (positions not given here) via scaffold‑1; reading uncertain; also: homo-bivalent on scaffold-1, attachment not given here)”: the “Fold Change versus WT Synbody” value in assay [2] is on record as 47 fold. Same read-out and setting: for “opt12-opt12: homo-bivalent synbody SEQ ID NO: 13-13 on scaffold-1 (chain 1 CSGRMYPYRPFQRKHIYRKK; chain 2 CSGRMYPYRPFQRKHIYRKK; linker (positions not given here) via scaffold‑1; reading uncertain; also: homo-bivalent on scaffold-1, attachment not given here)” the value was “n.b”. Same read-out and setting: with “opt13-opt13: homo-bivalent synbody SEQ ID NO: 14-14 on scaffold-1 (chain 1 CCSGDRYEYNPFQGKHIYNK; chain 2 CCSGDRYEYNPFQGKHIYNK; linker (positions not given here) via scaffold‑1; reading uncertain; also: homo-bivalent on scaffold-1, attachment not given here)” the entry was “n.b”. Turning to “opt14-opt14: homo-bivalent synbody SEQ ID NO: 15-15 on scaffold-1 (chain 1 CSGRMYEYNPFQGKHIYRKK; chain 2 CSGRMYEYNPFQGKHIYRKK; linker (positions not given here) via scaffold‑1; reading uncertain; also: homo-bivalent on scaffold-1, attachment not given here)”, the “Fold Change versus WT Synbody” value in assay [2] was 107 fold.
